Experiments:
Assay type in all cases: physicochemical
[1] = Bulk densities, Examples 1-14
[2] = Flow properties: angle of repose
[3] = Potency, Examples 15-56 (determined in conventional manner)
Protocol: The moisture contents of these powders were determined by the Karl Fischer method. The potency of the product was determined in conventional manner.

CC1(C)S[C@@H]2[C@H](NC(=O)[C@H](N)c3ccccc3)C(=O)N2[C@H]1C(=O)O [ampicillin trihydrate raw material, ampicillin trihydrate]
Bulk Density [1]: 0.67
Angle of repose of raw material [2]: 64 °
Potency of ampicillin trihydrate raw materials ([3]; raw material of Examples 15-29 and 41-48): 83%
Potency of ampicillin trihydrate raw materials ([3]; raw material of Examples 30-40): 84%
Potency of ampicillin trihydrate raw materials ([3]; raw material of Examples 49-56): 86%

Source: US4016254A, “Pharmaceutical formulations” (Beecham Group Limited, priority 1972, dated 1977)
